For this experiment, the target named is D(2) dopamine receptor (Rattus norvegicus, UniProt P61169). Nature of the experiment: Binding affinity against the Dopamine receptor D2 in rat striatum by using [3H]spiperone radioligand. The format is tissue-based.
D(2) dopamine receptor, sequence (P61169 whole entry): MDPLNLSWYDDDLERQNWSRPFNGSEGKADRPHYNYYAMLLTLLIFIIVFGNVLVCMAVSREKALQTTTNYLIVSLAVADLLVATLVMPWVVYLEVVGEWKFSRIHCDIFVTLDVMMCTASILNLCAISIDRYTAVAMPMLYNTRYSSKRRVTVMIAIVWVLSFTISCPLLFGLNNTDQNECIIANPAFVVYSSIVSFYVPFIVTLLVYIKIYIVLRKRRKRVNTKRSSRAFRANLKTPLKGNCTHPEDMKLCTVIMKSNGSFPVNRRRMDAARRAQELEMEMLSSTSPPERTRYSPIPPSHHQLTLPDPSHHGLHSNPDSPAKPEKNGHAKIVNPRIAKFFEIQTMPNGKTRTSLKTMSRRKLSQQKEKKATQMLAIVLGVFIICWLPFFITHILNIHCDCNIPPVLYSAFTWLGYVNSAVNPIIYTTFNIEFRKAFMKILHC

Consider `OC(CCCN1CCN(c2ncc(F)cn2)CC1)c1ccc(F)cc1` (stereo unspecified) [BMY-14802], for which the IC50 is 4.9 µM. In other words, the single-digit micromolar range.

One may read the IC50 as the concentration that gives 50% inhibition. Read a high IC50 as lower potency.

The values are drawn from ChEMBL document CHEMBL1126398, “(5S)-3-aryl-5-(1-piperidinylmethyl)-2-oxazolidinones, a new class of potential neuroleptics with a high affinity for sigma receptors” (Bioorg Med Chem Lett, 1992).
